In patent publication US20260022142A1, “MACROCYCLIC IMMUNOMODULATORS” (Bristol-Myers Squibb Company, priority 2022, published 2026):
pIC50: −log10 of the molar value. Bridge positions count the residues as written; N and C are the ends. Square brackets hold non-standard residues; d marks the D form. Peptide text beside a SMILES is read from it. * marks the point of attachment. Phe(3-CF3) = N[C@@H](Cc1cccc(C(F)(F)F)c1)C(=O)O; Ala(morpholin-4-yl) = N[C@@H](CN1CCOCC1)C(=O)O; Phe(4-CONH2) = NC(=O)c1ccc(C[C@H](N)C(=O)O)cc1; Phe(4-COOH) = N[C@@H](Cc1ccc(C(=O)O)cc1)C(=O)O; Bip = N[C@@H](Cc1ccc(-c2ccccc2)cc1)C(=O)O; NH(CH2)14COOH = O=C(O)CCCCCCCCCCCCCCN*; Phe(3-Me) = Cc1cccc(C[C@H](N)C(=O)O)c1; NH(CH2)12COOH = O=C(O)CCCCCCCCCCCCN*; Val(3-OH) = CC(C)(O)[C@H](N)C(=O)O; 4Pal = N[C@@H](Cc1ccncc1)C(=O)O; Cha = N[C@@H](CC1CCCCC1)C(=O)O; PEG4 = NCCOCCOCCOCCOCCC(=O)O; Carboxymethyl = O=C(O)C*; Orn = NCCC[C@H](N)C(=O)O; Aun = NCCCCCCCCCCC(=O)O; Dab = NCC[C@H](N)C(=O)O; Abu = CC[C@H](N)C(=O)O; AEEA = NCCOCCOCC(=O)O

Molecular target: T1, PD-1/PD-L1 interaction (PE-labeled human PD-L1-Ig binding to Jurkat cell line over-expressing human PD-1) (Homo sapiens, UniProt Q15116)
T1 construct: expressed in transfected cells; host or cells: Jurkat
T1 sequence (Q15116 25-288): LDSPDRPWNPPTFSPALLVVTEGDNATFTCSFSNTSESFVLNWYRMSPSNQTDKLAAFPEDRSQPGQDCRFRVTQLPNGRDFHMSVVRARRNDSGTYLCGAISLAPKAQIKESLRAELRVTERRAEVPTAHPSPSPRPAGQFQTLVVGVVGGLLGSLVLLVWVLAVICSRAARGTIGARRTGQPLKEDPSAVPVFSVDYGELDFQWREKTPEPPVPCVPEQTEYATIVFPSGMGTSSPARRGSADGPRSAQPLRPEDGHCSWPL
Assay: Jurkat-PD-1 Cell Binding High-Content Screening Assay (CBA)
Type: cell-based
Conditions: Jurkat cell line over-expressing human PD-1; PE-labeled PD-L1-Ig 20 nM final; read-out: Jurkat hPD1-PDL1 IC50
How it was run: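 Jurkat cells over-expressing human PD-1 (8×10^3 per well, DMEM/10% FCS) preincubated with compound 2 h at 37° C, then PE-labeled human PD-L1-Ig (20 nM final) added for 1 h. Cells fixed with paraformaldehyde, Hoechst-stained, and bound fluorescence quantified by high-content imaging.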

| Structure (SMILES) | pIC50 |
| --- | --- |
| CC(C)C[C@H]1NC(=O)[C@H](CCCN)NC(=O)[C@H](Cc2ccc(C(=O)O)cc2)NC(=O)[C@H](Cc2ccc(-c3ccccc3)cc2)NC(=O)[C@H](Cc2ccc(C(=O)O)cc2)NC(=O)[C@H](Cc2cccc(C(F)(F)F)c2)NC(=O)[C@H](CC(=O)O)NC(=O)[C@H](Cc2ccc(OCC(=O)O)cc2)NC(=O)[C@H](CN2CCOCC2)NC(=O)CSC[C@@H](C(=O)N[C@@H](CCN)C(=O)NCCCCCCCCCCCCCCC(=O)O)NC(=O)[C@H](CO)NC(=O)[C@H](C(C)(C)O)NC(=O)[C@H](CC2CCCCC2)NC(=O)[C@H](CCN)NC1=O [Compound 2919] ({CH2CO}-[Ala(morpholin-4-yl)]Y(Carboxymethyl)D[Phe(3-CF3)][Phe(4-COOH)][Bip][Phe(4-COOH)][Orn][dL][Dab][Cha][Val(3-OH)]SC[Dab]-{NH(CH2)14COOH}; thioether N-14) | 6.43 |
| CC(C)C[C@H]1NC(=O)[C@H](CCCN)NC(=O)[C@H](Cc2ccc(C(=O)O)cc2)NC(=O)[C@H](Cc2ccc(-c3ccccc3)cc2)NC(=O)[C@H](Cc2ccc(C(=O)O)cc2)NC(=O)[C@H](Cc2cccc(C(F)(F)F)c2)NC(=O)[C@H](CC(=O)O)NC(=O)[C@H](Cc2ccc(OCC(=O)O)cc2)NC(=O)[C@H](CN2CCOCC2)NC(=O)CSC[C@@H](C(=O)N[C@@H](CCN)C(=O)NCCOCCOCC(=O)NCCOCCOCC(=O)NCCCCCCCCCCCCC(=O)O)NC(=O)[C@H](CC(=O)O)NC(=O)[C@H](C(C)(C)O)NC(=O)[C@H](CC2CCCCC2)NC(=O)[C@H](CCN)NC1=O [Compound 2920] ({CH2CO}-[Ala(morpholin-4-yl)]Y(Carboxymethyl)D[Phe(3-CF3)][Phe(4-COOH)][Bip][Phe(4-COOH)][Orn][dL][Dab][Cha][Val(3-OH)]DC[Dab][AEEA][AEEA]-{NH(CH2)12COOH}; thioether N-14) | 7.59 |
| CC(C)C[C@H]1NC(=O)[C@H](CCCN)NC(=O)[C@H](Cc2ccc(C(=O)O)cc2)NC(=O)[C@H](Cc2ccc(-c3ccccc3)cc2)NC(=O)[C@H](Cc2ccc(C(=O)O)cc2)NC(=O)[C@H](Cc2cccc(C(F)(F)F)c2)NC(=O)[C@H](CC(=O)O)NC(=O)[C@H](Cc2ccc(OCC(=O)O)cc2)NC(=O)[C@H](CN2CCOCC2)NC(=O)CSC[C@@H](C(=O)N[C@@H](CCN)C(=O)NCCCCCCCCCCCCC(=O)O)NC(=O)[C@H](CC(=O)O)NC(=O)[C@H](C(C)(C)O)NC(=O)[C@H](CC2CCCCC2)NC(=O)[C@H](CCN)NC1=O [Compound 2921] ({CH2CO}-[Ala(morpholin-4-yl)]Y(Carboxymethyl)D[Phe(3-CF3)][Phe(4-COOH)][Bip][Phe(4-COOH)][Orn][dL][Dab][Cha][Val(3-OH)]DC[Dab]-{NH(CH2)12COOH}; thioether N-14) | 7.69 |
| CC(C)C[C@H]1NC(=O)[C@H](CCCN)NC(=O)[C@H](Cc2ccc(C(=O)O)cc2)NC(=O)[C@H](Cc2ccc(-c3ccccc3)cc2)NC(=O)[C@H](Cc2ccc(C(=O)O)cc2)NC(=O)[C@H](Cc2cccc(C(F)(F)F)c2)NC(=O)[C@H](CC(=O)O)NC(=O)[C@H](Cc2ccc(OCC(=O)O)cc2)NC(=O)[C@H](C)NC(=O)CSC[C@@H](C(=O)N[C@@H](CCN)C(=O)NCCCCCCCCCCCCCCC(=O)O)NC(=O)[C@H](Cc2c[nH]cn2)NC(=O)[C@H](C(C)(C)O)NC(=O)[C@H](CC2CCCCC2)NC(=O)[C@H](CCN)NC1=O [Compound 2922] ({CH2CO}-AY(Carboxymethyl)D[Phe(3-CF3)][Phe(4-COOH)][Bip][Phe(4-COOH)][Orn][dL][Dab][Cha][Val(3-OH)]HC[Dab]-{NH(CH2)14COOH}; thioether N-14) | 6.37 |
| CC(C)C[C@H]1NC(=O)[C@H](CCCN)NC(=O)[C@H](Cc2ccc(C(=O)O)cc2)NC(=O)[C@H](Cc2ccc(-c3ccccc3)cc2)NC(=O)[C@H](Cc2ccc(C(=O)O)cc2)NC(=O)[C@H](Cc2cccc(C(F)(F)F)c2)NC(=O)[C@H](CC(=O)O)NC(=O)[C@H](Cc2ccc(OCC(=O)O)cc2)NC(=O)[C@H](C)NC(=O)CSC[C@@H](C(=O)N[C@@H](CCN)C(=O)NCCCCCCCCCCCCC(=O)O)NC(=O)[C@H](Cc2c[nH]cn2)NC(=O)[C@H](C(C)(C)O)NC(=O)[C@H](CC2CCCCC2)NC(=O)[C@H](CCN)NC1=O [Compound 2923] ({CH2CO}-AY(Carboxymethyl)D[Phe(3-CF3)][Phe(4-COOH)][Bip][Phe(4-COOH)][Orn][dL][Dab][Cha][Val(3-OH)]HC[Dab]-{NH(CH2)12COOH}; thioether N-14) | 7.65 |
| Cc1cccc(C[C@@H]2NC(=O)[C@H](CC(=O)O)NC(=O)[C@H](Cc3ccc(OCC(=O)O)cc3)NC(=O)[C@H](Cc3ccncc3)NC(=O)CSC[C@@H](C(=O)N[C@@H](CCN)C(=O)NCCCCCCCCCCC(=O)O)NC(=O)[C@H]([C@@H](C)O)NC(=O)[C@H](C(C)C)NC(=O)[C@H](CC3CCCCC3)NC(=O)[C@H](CCN)NC(=O)[C@@H](CC(C)C)NC(=O)[C@H](CCCN)NC(=O)[C@H](Cc3ccc(OCC(=O)O)cc3)NC(=O)[C@H](Cc3ccc(-c4ccccc4)cc3)NC(=O)[C@H](Cc3ccc(OCC(=O)O)cc3)NC2=O)c1 [Compound 2924] ({CH2CO}-[4Pal]Y(Carboxymethyl)D[Phe(3-Me)]Y(Carboxymethyl)[Bip]Y(Carboxymethyl)[Orn][dL][Dab][Cha]VTC[Dab][Aun]-OH; thioether N-14) | 7.77 |
| Cc1cccc(C[C@@H]2NC(=O)[C@H](CC(=O)O)NC(=O)[C@H](Cc3ccc(OCC(=O)O)cc3)NC(=O)[C@H](Cc3ccc(C(N)=O)cc3)NC(=O)CSC[C@@H](C(=O)N[C@@H](CCN)C(=O)NCCCCCCCCCCC(=O)O)NC(=O)[C@H]([C@@H](C)O)NC(=O)[C@H](C(C)C)NC(=O)[C@H](CC3CCCCC3)NC(=O)[C@H](CCN)NC(=O)[C@@H](CC(C)C)NC(=O)[C@H](CCCN)NC(=O)[C@H](Cc3ccc(OCC(=O)O)cc3)NC(=O)[C@H](Cc3ccc(-c4ccccc4)cc3)NC(=O)[C@H](Cc3ccc(OCC(=O)O)cc3)NC2=O)c1 [Compound 2925] ({CH2CO}-[Phe(4-CONH2)]Y(Carboxymethyl)D[Phe(3-Me)]Y(Carboxymethyl)[Bip]Y(Carboxymethyl)[Orn][dL][Dab][Cha]VTC[Dab][Aun]-OH; thioether N-14) | 7.44 |
| CC[C@@H]1NC(=O)CSC[C@@H](C(=O)N[C@@H](CCN)C(=O)NCCOCCOCCOCCOCCC(=O)NCCCCCCCCCCCCC(=O)O)NC(=O)[C@H](Cc2c[nH]cn2)NC(=O)[C@H](C(C)(C)O)NC(=O)[C@H](CC2CCCCC2)NC(=O)[C@H](CCN)NC(=O)[C@@H](CC(C)C)NC(=O)[C@H](CCCN)NC(=O)[C@H](Cc2ccc(C(=O)O)cc2)NC(=O)[C@H](Cc2ccc(-c3ccccc3)cc2)NC(=O)[C@H](Cc2ccc(C(=O)O)cc2)NC(=O)[C@H](Cc2cccc(C(F)(F)F)c2)NC(=O)[C@H](CC(=O)O)NC(=O)[C@H](Cc2ccc(OCC(=O)O)cc2)NC1=O [Compound 2926] ({CH2CO}-[Abu]Y(Carboxymethyl)D[Phe(3-CF3)][Phe(4-COOH)][Bip][Phe(4-COOH)][Orn][dL][Dab][Cha][Val(3-OH)]HC[Dab][PEG4]-{NH(CH2)12COOH}; thioether N-14) | 7.48 |
| CC[C@@H]1NC(=O)CSC[C@@H](C(=O)N[C@@H](CCN)C(=O)NCCOCCOCCOCCOCCC(=O)NCCCCCCCCCCCCCCC(=O)O)NC(=O)[C@H](Cc2c[nH]cn2)NC(=O)[C@H](C(C)(C)O)NC(=O)[C@H](CC2CCCCC2)NC(=O)[C@H](CCN)NC(=O)[C@@H](CC(C)C)NC(=O)[C@H](CCCN)NC(=O)[C@H](Cc2ccc(C(=O)O)cc2)NC(=O)[C@H](Cc2ccc(-c3ccccc3)cc2)NC(=O)[C@H](Cc2ccc(C(=O)O)cc2)NC(=O)[C@H](Cc2cccc(C(F)(F)F)c2)NC(=O)[C@H](CC(=O)O)NC(=O)[C@H](Cc2ccc(OCC(=O)O)cc2)NC1=O [Compound 2927] ({CH2CO}-[Abu]Y(Carboxymethyl)D[Phe(3-CF3)][Phe(4-COOH)][Bip][Phe(4-COOH)][Orn][dL][Dab][Cha][Val(3-OH)]HC[Dab][PEG4]-{NH(CH2)14COOH}; thioether N-14) | 6.61 |
| CC[C@@H]1NC(=O)CSC[C@@H](C(=O)N[C@@H](CCN)C(=O)NCCCCCCCCCCCCC(=O)O)NC(=O)[C@H](Cc2c[nH]cn2)NC(=O)[C@H](C(C)(C)O)NC(=O)[C@H](CC2CCCCC2)NC(=O)[C@H](CCN)NC(=O)[C@@H](CC(C)C)NC(=O)[C@H](CCCN)NC(=O)[C@H](Cc2ccc(C(=O)O)cc2)NC(=O)[C@H](Cc2ccc(-c3ccccc3)cc2)NC(=O)[C@H](Cc2ccc(C(=O)O)cc2)NC(=O)[C@H](Cc2cccc(C(F)(F)F)c2)NC(=O)[C@H](CC(=O)O)NC(=O)[C@H](Cc2ccc(OCC(=O)O)cc2)NC1=O [Compound 2928] ({CH2CO}-[Abu]Y(Carboxymethyl)D[Phe(3-CF3)][Phe(4-COOH)][Bip][Phe(4-COOH)][Orn][dL][Dab][Cha][Val(3-OH)]HC[Dab]-{NH(CH2)12COOH}; thioether N-14) | 7.35 |
| CC[C@@H]1NC(=O)CSC[C@@H](C(=O)N[C@@H](CCN)C(=O)NCCCCCCCCCCCCCCC(=O)O)NC(=O)[C@H](Cc2c[nH]cn2)NC(=O)[C@H](C(C)(C)O)NC(=O)[C@H](CC2CCCCC2)NC(=O)[C@H](CCN)NC(=O)[C@@H](CC(C)C)NC(=O)[C@H](CCCN)NC(=O)[C@H](Cc2ccc(C(=O)O)cc2)NC(=O)[C@H](Cc2ccc(-c3ccccc3)cc2)NC(=O)[C@H](Cc2ccc(C(=O)O)cc2)NC(=O)[C@H](Cc2cccc(C(F)(F)F)c2)NC(=O)[C@H](CC(=O)O)NC(=O)[C@H](Cc2ccc(OCC(=O)O)cc2)NC1=O [Compound 2929] ({CH2CO}-[Abu]Y(Carboxymethyl)D[Phe(3-CF3)][Phe(4-COOH)][Bip][Phe(4-COOH)][Orn][dL][Dab][Cha][Val(3-OH)]HC[Dab]-{NH(CH2)14COOH}; thioether N-14) | 6.43 |
